From US20120115912A1, “RXR AGONIST COMPOUNDS AND METHODS” (priority 2009, published 2012)
Where two headings read alike, the source gives them in different places.

Experiments:
[1] = tested on: astrocytes; assay: RXR mediated intracellular Aβ degradation with PPARγ or LXR inhibitors, astrocytes; assay type: cell-based; conditions: inhibitor pretreatment 1.5 hrs, Bexarotene 24 hours, 18 hours 2 ug/mL soluble Aβ
From the text: (§1) FIG. 14 illustrates graphs showing RXR mediated intracellular Aβ degradation is prevented by inhibiting PPARγ or LXR.
(§2) To determine which heterodimer partners are involved in RXR activation driven Aβ intracellular degradation, we inhibited PPARγ and LXR by competitive inhibitors, TO and 22-s-Hydroxycholesterol, respectively. Aβ degradation mediated by either microglia (A) or astrocytes (B) is inhibited with either inhibitor to PPAR or LXR. Additionally, a co-treatment with both inhibitors reduces Aβ degradation further (FIG. 14).

[2] = tested on: microglia; assay: RXR mediated intracellular Aβ degradation with PPARγ or LXR inhibitors, microglia; assay type: cell-based; conditions: inhibitor pretreatment 1.5 hrs, Bexarotene 24 hours, 18 hours 2 ug/mL soluble Aβ
From the text: as §1, §2

[3] = therapeutic doses, FDA alert issued on May 21, 2007; cited from earlier work
[4] = tested on: primary microglia; assay: Proteolytic degradation of Aβ by primary microglia; assay type: cell-based, murine; conditions: for intracellular Aβ levels: 24 hours drug then 18 hours with 2 μg/mL soluble Aβ
From the text: FIG. 5 illustrates graphs showing RXR agonists stimulate Aβ degradation.
Given the ability of RXR activation to drive LXR target gene expression, we predicted that agonist treatment should promote the proteolytic degradation of Aβ by microglia. […] Aβ uptake was unaffected by either drug treatment.

[5] = tested on: CD36; assay: Expression of PPARγ target gene CD36 in primary astrocytes (qRT-PCR); conditions: confluent primary murine astrocytes, 10 nM, time course
From the text: Cell lysates were subjected to quantitative RT-PCR. GAPDH served as a control.

[6] = tested on: AD animal model; assay: Contextual fear conditioning in AD animal model; conditions: 6 month old AD model mice, 100 mg/kg/day oral gavage, 7 days
Protocol: Wildtype littermates were used as a control and were orally gavaged with water for 7 days (n=5). Following treatment, animals underwent contextual fear conditioning. The number of times the animals froze over a two minute period was assessed after training.

[7] = tested on: ApoE knock out astrocytes; assay: Intracellular Aβ degradation in ApoE knock out astrocytes; assay type: cell-based, murine
[8] = tested on: LXR target genes, ABCA1 and ABCG1; conditions: murine model of mixed dyslipidemis; cited from earlier work
[9] = tested on: LXR target genes (ABCA1, ABCG1, ApoE); assay: RXR activation drives LXR target gene expression in primary astrocytes (Western analysis); conditions: primary murine astrocytes, increasing doses, 24 hours
From the text: Cell lysates were subjected to Western analysis for ABCA1, ABCG1 and ApoE. Actin served as a load control.

[10] = tested on: ApoE knock out microglia; assay: Intracellular Aβ degradation in ApoE knock out microglia; assay type: cell-based, murine
[11] = tested on: primary astrocytes; assay: Proteolytic degradation of Aβ by primary astrocytes; assay type: cell-based, murine
From the text: FIG. 12 illustrates a graph showing RXR agonist stimulate Aβ degradation in astrocytes.
As shown above, astrocytes can drive the expression of LXR target genes after RXR activation, we predicted that agonist treatment should also promote the intracellular degradation of Aβ by astrocytes. […]. Aβ uptake was not affected by drug treatments (data not shown).

[12] = tested on: ApoE; assay: ApoE lipidation status in astrocyte conditioned media (native gel electrophoresis, Western); assay type: cell-based; conditions: confluent primary murine astrocytes, increasing doses, 48 hours
From the text: FIG. 4 illustrates an immunoassay showing ApoE lipidation status is increased after RXR agonist treatment. […] Conditioned media was subjected to native gel electrophoresis followed by Western analysis for ApoE.
Astrocyte conditioned media was collected and assessed by native gel electrophoresis. […]. (FIG. 4).

[13] = humans, extended periods of use; cited from earlier work
[14] = tested on: LXR target genes (ABCA1, ABCG1, ApoE); conditions: primary murine microglia, increasing doses, 24 hours
From the text: Cell lysates were subjected to Western analysis for ABCA1, ABCG1, ApoE, and GAPDH as a loading control.

Structure (SMILES): CC(C)CC[C@H](O)[C@@H](C)[C@H]1CC[C@H]2[C@@H]3CC=C4C[C@@H](O)CC[C@]4(C)[C@H]3CC[C@]12C [22-s-Hydroxycholesterol]
- Bexarotene-driven Aβ degradation in presence of inhibitor [1]: inhibited
- Bexarotene-driven Aβ degradation in presence of inhibitor [2]: inhibited

Structure (SMILES): CN(CCOc1ccc(CC2SC(=O)NC2=O)cc1)c1ccccn1 (centres unmarked) [rosiglitazone, 5-[4-[2-(N-methyl-N-(2-pyridyl)amino]ethoxy]benzyl]thiazolidine-2,4-dione]
- risk of heart attack [3]: significantly increased risk of heart attack

Structure (SMILES): CC1=C(/C=C/C(C)=C\C=C\C(C)=C\C(=O)O)C(C)(C)CCC1 [9cisRA]
- Aβ uptake [4]: unaffected
- intracellular Aβ levels [4]: dose-dependent reduction

Structure (SMILES): C=C(c1ccc(C(=O)O)cc1)c1cc2c(cc1C)C(C)(C)CCC2(C)C [Bexarotene]
- CD36 expression by qRT-PCR [5]: drives CD36, a PPARγ regulated gene, expression
- contextual fear conditioning behavior [6]: significantly improves behavior
- intracellular Aβ degradation ([7]; with exogenous 1 μg/mL ApoE): the effect of intracellular Aβ degradation returns
- intracellular Aβ degradation ([7]; without ApoE): no effect
- expression of the LXR target genes, ABCA1 and ABCG1 [8]: induce the expression of the LXR target genes, ABCA1 and ABCG1
- expression of ABCA1, ABCG1, and ApoE [9]: drives the expression of ABCA1, ABCG1 and ApoE
- Aβ uptake [4]: unaffected
- intracellular Aβ levels [4]: dose-dependent reduction
- intracellular Aβ degradation ([10]; with exogenous 1 μg/mL ApoE): the effect of intracellular Aβ degradation returns
- intracellular Aβ degradation ([10]; without ApoE): no effect
- intracellular Aβ levels ([11]; 24 hours drug then 18 hours with 2 ug/mL soluble Aβ): dose dependent reduction
- Aβ uptake ([11]; data not shown): not affected
- lipidation status of ApoE [12]: increases the lipidation status of ApoE
- clinical safety profile [13]: good safety profile
- expression of ABCA1, ABCG1, and ApoE [14]: drives the expression of ABCA1, ABCG1, and ApoE
